Results on one compound are retold here after patent US10335382B2, “Use of hydrogen sulfide synthesis inhibitors for cancer therapy” (THE BOARD OF REGENTS OF THE UNIVERSITY OF TEXAS SYSTEM, priority 2013, dated 2019).

The target in this test is T1, CBS (Homo sapiens, UniProt P35520).
T1 sequence (P35520 1-551): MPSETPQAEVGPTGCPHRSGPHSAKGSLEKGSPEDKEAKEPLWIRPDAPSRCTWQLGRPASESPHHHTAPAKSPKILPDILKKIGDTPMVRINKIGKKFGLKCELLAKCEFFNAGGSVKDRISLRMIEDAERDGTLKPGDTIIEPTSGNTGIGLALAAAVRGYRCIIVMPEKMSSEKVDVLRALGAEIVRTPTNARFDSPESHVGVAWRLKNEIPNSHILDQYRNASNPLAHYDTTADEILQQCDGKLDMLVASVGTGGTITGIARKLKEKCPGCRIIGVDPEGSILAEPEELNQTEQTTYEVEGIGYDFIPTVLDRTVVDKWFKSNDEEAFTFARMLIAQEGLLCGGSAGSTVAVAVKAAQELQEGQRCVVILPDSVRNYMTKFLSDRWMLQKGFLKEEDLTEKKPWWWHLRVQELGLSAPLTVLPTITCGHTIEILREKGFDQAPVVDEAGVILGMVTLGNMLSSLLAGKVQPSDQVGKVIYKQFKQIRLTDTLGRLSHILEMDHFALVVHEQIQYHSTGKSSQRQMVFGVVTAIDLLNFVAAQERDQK
Put plainly: CBS inhibitor screen: H2S production by recombinant CBS (methylene blue assay). Type of test: biochemical. Further details: These studies used full-length human CBS enzyme; made in house; host or cells: E. coli BL21 (DE3) Codon Plus. The following applies: 100 μM; homocysteine-induced H2S production; LOPAC library screen; read-out: Inhibition of CBS activity at 100 μM. The text has this: Studies have been performed characterizing, in detail, the specificity and selectivity of all known H2S biosynthesis inhibitors, using recombinant CBS and CSE enzymes. These studies used full-length human CBS enzyme, and a colorimetric ‘capture’ reaction of the H2S produced by these enzymes, an assay generally known as the ‘methylene blue assay’. This assay is used in a 96-well plate format, as well as in combination with a second screening method based on a fluorescent dye.
Human recombinant CBS is expressed as described (Asimakopoulou et al, (2013) Br J Pharmacol. 169(4):922-32). A library of pharmacologically active compounds (e.g., LOPAC library, Sigma; 1240 compounds) is tested on homocysteine-induced H2S production. In certain aspects the assay is in a 96-well format. In certain aspects H2S production is measured by the methylene blue assay (Asimakopoulou et al., (2013) Br J Pharmacol. 169(4):922-32).
Plasmids, bacterial strains and media. E. coli BL21 (DE3) Codon Plus is used as a host strain to express recombinant human CSE or CBS. CSE cDNA was cloned into pGEX-4T3 and CBS into pGEX-Kg to create N-terminal GSH-S-transferase (GST) fusion proteins. The expression vectors were transformed and plated on LB-agar plates, supplemented with ampicillin (100 μg/mL).
The expression and purification of CSE and CBS is performed as described previously with modifications (Frank et al., (2008) Arch Biochem Biophys 470:64-72; Huang et al., (2009) J Mol Biol 396: 708-18). Briefly, BL21(DE3) Codon Plus cells containing either the expression vector pGEX-4T3/GST-CSE or pGEX-Kg/GST-CBS are grown at 37° C. and 180 r.p.m. in LB broth medium containing 100 μg/mL ampicillin to an absorption of 0.6-0.8 at 600 nm. In addition, 0.3 mM d-ALA is added to the culture containing pGEX-Kg/GST-CBS. Then protein expression is induced by addition of 0.1 mM IPTG. Cells containing pGEX-4T-3/GST-CSE are incubated overnight at 18° C., whereas cells containing pGEXKg/GST-CBS are incubated overnight at 30° C. Culture is then centrifuged at 4° C. and 5000×g for 10 min and the cell pellet was resuspended in PBS (140 mM NaCl, 2.7 mM KCl, 10 mM Na2HPO4, 1.8 mM KH2PO4, pH 7.8) and stored at −20° C. overnight. After thawing, the suspension is sonicated in lysis buffer containing PBS and protease inhibitor cocktail for GST-CSE and PBS, 5 mM DTT, 1% Triton X-100, […] and protease inhibitor cocktail for GST-CBS. After centrifugation at 4° C. for 30 min, the soluble fraction containing either the GST-CSE or the GST-CBS recombinant protein is loaded onto a GSTrap FF 1 mL affinity column that has been equilibrated with binding buffer PBS. The column was consecutively washed with five column volumes of binding buffer. Proteins attached to the column, including GST-CSE or GST-CBS recombinant proteins, are eluted with five column volumes of elution buffer (50 mM Tris-HCl, 10 mM reduced GSH, pH 8.0) and then dialysed and concentrated in 10 mM sodium phosphate buffer pH 8.2 and DTT 1 mM. The purity of the recombinant enzymes was checked by SDS-PAGE on 12% polyacrylamide gels after staining of protein bands with Coomassie Blue R-250. Protein concentration was determined using the DC protein assay kit.
H2S determination is performed according to Stipanuk and Beck ((1982) Biochem J 206:267-77) with some modifications. In the case of the CSE enzyme, an assay consist of a 100 μL reaction mixture containing 5 μg of the purified CSE enzyme, 0.01 mM PLP, 1 mM L-cys, and 50 mM sodium phosphate buffer pH 8.2. For the CBS enzyme, the reaction mixture contains the same as for the CSE plus 1 mM homocysteine. The inhibitors can be added to the reaction before L-cys is added to the solution. Reactions are initiated by transferring the reaction solutions from ice to a 37° C. shaking water bath. After incubation at 37° C. the reaction is terminated by adding 1% ZnAc to trap H2S followed by 10% TCA to precipitate proteins. […]

For the compound `NOCC(=O)O` [AOAA, aminooxyacetic acid], the inhibition at 100 µM is 98%.
